{"source": "patent US8637073B2", "about": "(priority 2003, dated 2014)", "origin": "cited, not measured here", "details": "maintenance of opioid-dependent pregnant women; Eder et al. 2001"}
{"smiles": "CCC(=O)C(CC(C)N(C)C)(c1ccccc1)c1ccccc1", "note": "(stereo not shown) [methadone]", "values": [{"measurement": "neonates in which neonatal abstinence syndrome (NAS) is observed", "result": "60-80%"}]}
